Test results published in patent US20040109905A1, “Method and composition of anthocyanin-rich berry extracts that prevents or inhibits angiogenesis and helicobacter pylori and acts as a powerful antioxidant that provides various health benefits” (priority 2002, published 2004).

System: H2O2-induced expression of VEGF
Experiment: H2O2-induced VEGF expression in HaCaT keratinocytes (ELISA)
Assay type: cell-based, human
Details: for VEGF: HaCaT cells, FA 200 nM, catechin 100 nM, rutin 1 μM, α-tocopherol 10 μM for 12 hours, then H2O2 150 μM for 12 hours, Mean±SD of three experiments; for effect on H2O2 (oxidant)-inducible VEGF expression, in words: human keratinocytes
Description: The cells used for the test were immortalized HaCaT human keratinocytes grown in Dulbecco's modified Eagle's medium (provided by Life Technologies of Gaithersburg, Md.) and supplemented with 10% fetal bovine serum, 100 U/mL penicillin and 100 μg/mL streptomycin.
Solutions incorporating berry extracts or GSPE were prepared fresh in dimethyl sulfoxide at concentrations such that the final concentration of the solvent in cell suspension never exceeded 0.1% prior to cell treatment, the DMSO solutions were passed through a […] filter for sterilization. Respective controls were treated with equal volumes of dimethyl sulfoxide. The test cells were pretreated with the berry solutions.
Test cells were seeded onto multiple well culture-plates. After 24 hours of growth at 80% confluency, the cells were synchronized by culturing them in a serum-deprived medium for 12 hours. Following the synchronization, the cells were treated with H2O2 or TNFα. The berry treatment protocols are described in the legends for Tables 2 through 4 below. A serum-free medium was selected to avoid any possible interaction between the serum components and H2O2. The VEGF level in the medium was determined using a commercially available ELISA kit, marketed by R and D systems of Minneapolis, Minn.
(§1) HaCaT cells were seeded at density 0.45×10^6/well/3 ml. After 24 hr, growth media was chanced to serum free RPMI and berry samples (50 μg/ml) or GSPE (25 μg/ml) were added. After 12 hours, cells were challenged with H2O2 (150 μM). After 12 hours of activation with H2O2, media was collected for ELISA. *p<0.05, higher in response to H2O2 treatment; *lower compared to H2O2 treated cells. Mean±SD of three experiments.
as §1, with “and either pure flavonoids ([…], FA 200 nM; catechin, Cat 100 nM, ruti, rut 1 μM) at concentrations observed in” for “and”, “samples” for “samples (50 μg/ml)”, “a α-tocopherol (10 μM as reference antioxidant)” for “GSPE (25 μg/ml)”

Molecule | VEGF [pg/mL] | effect on H2O2 (oxidant)-inducible VEGF expression, in words
COc1cc(/C=C/C(=O)O)ccc1O [Ferrulic Acid] | 319.19 ± 21.05 | suppress oxidant-inducible VEGF expression to some degree
C[C@@H]1O[C@@H](OC[C@H]2O[C@@H](Oc3c(-c4ccc(O)c(O)c4)oc4cc(O)cc(O)c4c3=O)[C@H](O)[C@@H](O)[C@@H]2O)[C@H](O)[C@H](O)[C@H]1O [Rutin] | 209.06 ± 59.28 | –
Cc1c(C)c2c(c(C)c1O)CC[C@@](C)(CCC[C@H](C)CCC[C@H](C)CCCC(C)C)O2 [α-tocopherol] | 397.10 ± 64.91 | did not influence inducible VEGF expression
Catechin | 285.89 ± 51.13 | suppress oxidant-inducible VEGF expression to some degree
